In ChEMBL document CHEMBL1201862, “PubChem BioAssay data set” (2004):
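48-hour exposure; five concentrations; linearly interpolated endpoints. Abbreviation: GI50, concentration required for 50% inhibition of growth.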 The source made the active and inactive calls. No stated cut-off is given here; in the data, active = GI50 up to about 1.1 µM and inactive = higher.

Columns and labels:
Assay in all cases: NCI tumour cell line growth inhibition, 48 h
A549 = system: A549
HCT-15 = system: HCT-15
SK-MEL-5 = system: SK-MEL-5
HCC 2998 = system: HCC 2998
SR = system: SR
MDA-MB-435 = system: MDA-MB-435
HL-60 = system: HL-60
SF-295 = system: SF-295
T47D = system: T47D
M14 = system: M14
COLO 205 = system: COLO 205
OVCAR-8 = system: OVCAR-8
SK-MEL-28 = system: SK-MEL-28
RXF 393 = system: RXF 393
SNB-75 = system: SNB-75
DU-145 = system: DU-145
U-251 = system: U-251
MDA-MB-231 = system: MDA-MB-231
HOP-92 = system: HOP-92
HOP-62 = system: HOP-62
NCI/ADR-RES = system: NCI/ADR-RES
A498 = system: A498
OVCAR-4 = system: OVCAR-4
OVCAR-5 = system: OVCAR-5
PC-3 = system: PC-3
Malme-3M = system: Malme-3M
NCI-H226 = system: NCI-H226
HCT-116 = system: HCT-116
NCI-H522 = system: NCI-H522
SF-268 = system: SF-268
Hs-578T = system: Hs-578T
RPMI-8226 = system: RPMI-8226
SW-620 = system: SW-620
LOX IMVI = system: LOX IMVI
786-0 = system: 786-0
IGROV-1 = system: IGROV-1
SK-OV-3 = system: SK-OV-3
SK-MEL-2 = system: SK-MEL-2
TK-10 = system: TK-10
UO-31 = system: UO-31
MDA-N = system: MDA-N
UACC-62 = system: UACC-62
BT-549 = system: BT-549
KM12 = system: KM12
CAKI-1 = system: CAKI-1
MCF7 = system: MCF7
EKVX = system: EKVX
UACC-257 = system: UACC-257
NCI-H23 = system: NCI-H23
HT-29 = system: HT-29
SF-539 = system: SF-539
OVCAR-3 = system: OVCAR-3
CCRF-CEM = system: CCRF-CEM
MOLT-4 = system: MOLT-4
SN12C = system: SN12C
NCI-H460 = system: NCI-H460
SNB-19 = system: SNB-19
ACHN = system: ACHN
K562 = system: K562

## CC(C)(C)O/N=C/c1cc(NC(=S)c2ccsc2)ccc1Cl
A549
  GI50: 17.5 µM (inactive)
HCT-15
  GI50: 14.6 µM
SK-MEL-5
  GI50: 3.99 µM (inactive)
HCC 2998
  GI50: 14.5 µM (inactive)
SR
  GI50: 3.36 µM (inactive)
MDA-MB-435
  GI50: 14.6 µM (inactive)
HL-60
  GI50: 17.2 µM (inactive)
SF-295
  GI50: 11.6 µM (inactive)
T47D
  GI50: 4.01 µM (inactive)
M14
  GI50: 16.7 µM (inactive)
COLO 205
  GI50: 14.9 µM (inactive)
OVCAR-8
  GI50: 13.1 µM (inactive)
SK-MEL-28
  GI50: 16.7 µM (inactive)
RXF 393
  GI50: 14.1 µM (inactive)
SNB-75
  GI50: 23.6 µM (inactive)
DU-145
  GI50: 5.37 µM (inactive)
U-251
  GI50: 15.7 µM (inactive)
MDA-MB-231
  GI50: 16.4 µM (inactive)
HOP-92
  GI50: 19.1 µM (inactive)
HOP-62
  GI50: 16 µM (inactive)
NCI/ADR-RES
  GI50: 11.8 µM (inactive)
A498
  GI50: 10.5 µM (inactive)
OVCAR-4
  GI50: 14.6 µM (inactive)
OVCAR-5
  GI50: 17.7 µM (inactive)
PC-3
  GI50: 13 µM (inactive)
Malme-3M
  GI50: 14.3 µM (inactive)
NCI-H226
  GI50: 14 µM (inactive)
HCT-116
  GI50: 11.4 µM (inactive)
NCI-H522
  GI50: 13.3 µM (inactive)
SF-268
  GI50: 16 µM (inactive)
Hs-578T
  GI50: 23.3 µM (inactive)
RPMI-8226
  GI50: 2.75 µM (inactive)
SW-620
  GI50: 17.2 µM (inactive)
LOX IMVI
  GI50: 16 µM (inactive)
786-0
  GI50: 16.2 µM (inactive)
IGROV-1
  GI50: 16.7 µM (inactive)
SK-OV-3
  GI50: 18.7 µM (inactive)
SK-MEL-2
  GI50: 16 µM (inactive)
TK-10
  GI50: 13.7 µM (inactive)
UO-31
  GI50: 12.2 µM (inactive)
MDA-N
  GI50: 15.2 µM (inactive)
UACC-62
  GI50: 15.5 µM (inactive)
BT-549
  GI50: 13.9 µM (inactive)
KM12
  GI50: 9.89 µM (inactive)
CAKI-1
  GI50: 16.6 µM (inactive)
MCF7
  GI50: 11.2 µM (inactive)
EKVX
  GI50: 11.9 µM (inactive)
UACC-257
  GI50: 12.6 µM (inactive)
NCI-H23
  GI50: 7.41 µM (inactive)
HT-29
  GI50: 13.3 µM (inactive)
SF-539
  GI50: 18 µM (inactive)
OVCAR-3
  GI50: 14.9 µM (inactive)
CCRF-CEM
  GI50: 10.7 µM (inactive)
MOLT-4
  GI50: 5.71 µM (inactive)
SN12C
  GI50: 17.1 µM (inactive)

## OC1(C(O)(c2ccc(-c3ccccc3)cc2)c2ccc(-c3ccccc3)cc2)CCCCC1
A549
  GI50: 81.5 µM (inactive)
HCT-15
  GI50: 23 µM
SK-MEL-5
  GI50: 63.4 µM (inactive)
HCC 2998
  GI50: 85.3 µM (inactive)
SR
  GI50: 28.6 µM (inactive)
MDA-MB-435
  GI50: > 100 µM (inactive)
NCI-H460
  GI50: 44 µM (inactive)
HL-60
  GI50: > 100 µM (inactive)
SF-295
  GI50: > 100 µM (inactive)
T47D
  GI50: > 100 µM (inactive)
M14
  GI50: > 100 µM (inactive)
COLO 205
  GI50: > 100 µM (inactive)
OVCAR-8
  GI50: > 100 µM (inactive)
SK-MEL-28
  GI50: > 100 µM (inactive)
RXF 393
  GI50: > 100 µM (inactive)
SNB-75
  GI50: > 100 µM (inactive)
DU-145
  GI50: > 100 µM (inactive)
SNB-19
  GI50: > 100 µM (inactive)
U-251
  GI50: > 100 µM (inactive)
MDA-MB-231
  GI50: > 100 µM (inactive)
HOP-92
  GI50: > 100 µM (inactive)
HOP-62
  GI50: > 100 µM (inactive)
NCI/ADR-RES
  GI50: > 100 µM (inactive)
ACHN
  GI50: > 100 µM (inactive)
A498
  GI50: > 100 µM (inactive)
OVCAR-4
  GI50: > 100 µM (inactive)
OVCAR-5
  GI50: > 100 µM (inactive)
PC-3
  GI50: > 100 µM (inactive)
NCI-H226
  GI50: > 100 µM (inactive)
HCT-116
  GI50: > 100 µM (inactive)
NCI-H522
  GI50: > 100 µM (inactive)
SF-268
  GI50: > 100 µM (inactive)
Hs-578T
  GI50: > 100 µM (inactive)
RPMI-8226
  GI50: > 100 µM (inactive)
SW-620
  GI50: > 100 µM (inactive)
LOX IMVI
  GI50: > 100 µM (inactive)
786-0
  GI50: > 100 µM (inactive)
IGROV-1
  GI50: > 100 µM (inactive)
SK-OV-3
  GI50: > 100 µM (inactive)
SK-MEL-2
  GI50: > 100 µM (inactive)
TK-10
  GI50: > 100 µM (inactive)
UO-31
  GI50: > 100 µM (inactive)
MDA-N
  GI50: > 100 µM (inactive)
UACC-62
  GI50: > 100 µM (inactive)
BT-549
  GI50: > 100 µM (inactive)
K562
  GI50: > 100 µM (inactive)
KM12
  GI50: > 100 µM (inactive)
CAKI-1
  GI50: > 100 µM (inactive)
MCF7
  GI50: 96.8 µM (inactive)
EKVX
  GI50: > 100 µM (inactive)
UACC-257
  GI50: > 100 µM (inactive)
NCI-H23
  GI50: > 100 µM (inactive)
HT-29
  GI50: 87.9 µM (inactive)
SF-539
  GI50: > 100 µM (inactive)
OVCAR-3
  GI50: > 100 µM (inactive)
MOLT-4
  GI50: 23.9 µM (inactive)
SN12C
  GI50: > 100 µM (inactive)

## Cn1c(=O)c2nc3c(=O)n(C)c(=O)n(CC(N)=O)c3nc2n(C)c1=O
HCT-15
  GI50: > 100 µM
SK-MEL-5
  GI50: > 100 µM (inactive)
HCC 2998
  GI50: > 100 µM (inactive)
SR
  GI50: > 100 µM (inactive)
MDA-MB-435
  GI50: > 100 µM (inactive)
NCI-H460
  GI50: > 100 µM (inactive)
HL-60
  GI50: > 100 µM (inactive)
SF-295
  GI50: > 100 µM (inactive)
T47D
  GI50: > 100 µM (inactive)
M14
  GI50: > 100 µM (inactive)
COLO 205
  GI50: > 100 µM (inactive)
OVCAR-8
  GI50: > 100 µM (inactive)
SK-MEL-28
  GI50: > 100 µM (inactive)
RXF 393
  GI50: > 100 µM (inactive)
SNB-75
  GI50: > 100 µM (inactive)
DU-145
  GI50: > 100 µM (inactive)
SNB-19
  GI50: > 100 µM (inactive)
U-251
  GI50: > 100 µM (inactive)
MDA-MB-231
  GI50: > 100 µM (inactive)
HOP-92
  GI50: > 100 µM (inactive)
HOP-62
  GI50: > 100 µM (inactive)
NCI/ADR-RES
  GI50: > 100 µM (inactive)
ACHN
  GI50: > 100 µM (inactive)
A498
  GI50: > 100 µM (inactive)
OVCAR-4
  GI50: > 100 µM (inactive)
OVCAR-5
  GI50: > 100 µM (inactive)
PC-3
  GI50: > 100 µM (inactive)
Malme-3M
  GI50: > 100 µM (inactive)
NCI-H226
  GI50: > 100 µM (inactive)
HCT-116
  GI50: > 100 µM (inactive)
NCI-H522
  GI50: > 100 µM (inactive)
SF-268
  GI50: > 100 µM (inactive)
Hs-578T
  GI50: > 100 µM (inactive)
RPMI-8226
  GI50: > 100 µM (inactive)
SW-620
  GI50: > 100 µM (inactive)
LOX IMVI
  GI50: > 100 µM (inactive)
786-0
  GI50: > 100 µM (inactive)
IGROV-1
  GI50: > 100 µM (inactive)
SK-OV-3
  GI50: > 100 µM (inactive)
SK-MEL-2
  GI50: > 100 µM (inactive)
TK-10
  GI50: > 100 µM (inactive)
UO-31
  GI50: > 100 µM (inactive)
MDA-N
  GI50: > 100 µM (inactive)
UACC-62
  GI50: > 100 µM (inactive)
BT-549
  GI50: > 100 µM (inactive)
K562
  GI50: > 100 µM (inactive)
KM12
  GI50: > 100 µM (inactive)
CAKI-1
  GI50: > 100 µM (inactive)
MCF7
  GI50: > 100 µM (inactive)
EKVX
  GI50: > 100 µM (inactive)
UACC-257
  GI50: > 100 µM (inactive)
NCI-H23
  GI50: > 100 µM (inactive)
HT-29
  GI50: > 100 µM (inactive)
SF-539
  GI50: > 100 µM (inactive)
OVCAR-3
  GI50: > 100 µM (inactive)
CCRF-CEM
  GI50: > 100 µM (inactive)
SN12C
  GI50: > 100 µM (inactive)
